This is an account of results in patent publication US6593365B1, “Diflunisal esters and related compounds” (The University of Queensland, priority 1997, dated 2003).

Entries after “also recorded” stand apart in the source; their conditions may differ.

Data set [1] concerns platelets (platelet cyclooxygenase acylation). The experiment in a line: Platelet washing study (ADGS). It counts as cell-based, human. Particulars: platelet-rich plasma pretreated with drug at 37° C.; 200 μM arachidonic acid; before/after two-fold washing. An excerpt: It is generally accepted that aspirin inhibits platelet cyclooxygenase through an irreversible acetylation process. In separate experiments, the platelet acylation by these O-acyl salicylates was investigated. It is hypothesised that if the acylation were reversible, then the O-acyl moieties might be removed by platelet washing. Consequently, the washed platelets would become susceptible to aggregation by arachidonic acid.
A platelet-washing technique, ADGS (albumin density gradient separation) similar to one used by Spriggs and Alexander (Spriggs, 1960, Nature 188 863), was employed for this purpose. The principle underlying ADGS is simply that of centrifuging platelets into a continuous density gradient produced by mixing the interface between platelet-rich plasma and 40-45% bovine serum albumin. Thereby the platelets are gently sedimented into a zone with a specific gravity equal to their own, and they are protected by the cushion of albumin from disruptive squashing on the hard surface of the centrifuge tube.
Flat-bottomed, polystyrene tubes of 10 mL capacity with stopper were used for platelet washing by ADGS. Pasteur pipettes were siliconised and used for transferring plasma and wash fluid. Stirring rods were made from Pasteur pipettes by heating the tips, forming a right-angle ben approximately 1 cm long and then siliconised. […]

For data set [2] the following is noted: cited from earlier work.
The conditions of data set [3]: at 25° C. (Foye 1989); cited from earlier work.

With “O-acetylsalicylic acid [Compound C2SA, reference compound]”, the “Platelet response to arachidonic acid after pretreatment (platelet washing study)” value in data set [1] is recorded as “non-reversibly inhibited; also recorded: still refractory to arachidonic acid”. Besides, the solubility in data set [2] (at 25° C., The Merck Index 1983) was 18.5 mM. Moreover, the Maximum solubility in data set [2] (water, 25° C., literature value (Merck Index)) was 18.5 mM. Besides, the pKa in data set [3] is 3.5.
For `CCCCCC(=O)Oc1ccccc1C(=O)O` [Compound C6SA, n-hexanoylsalicylic acid], in data set [1], the “Platelet response to arachidonic acid after pretreatment (platelet washing study)” value is recorded as “non-reversibly inhibited; also recorded: still refractory to arachidonic acid”.

One may read the solubility as the concentration that dissolves in the medium under given conditions. For orientation: pKa means the pH at which an ionisable group is half protonated.
